Target: T1, human TLR9 (Homo sapiens, UniProt Q9NR96)
T1 construct: HA; host or cells: 293XL-hTLR9-HA (HEK293)
T1 sequence (Q9NR96 26-1032): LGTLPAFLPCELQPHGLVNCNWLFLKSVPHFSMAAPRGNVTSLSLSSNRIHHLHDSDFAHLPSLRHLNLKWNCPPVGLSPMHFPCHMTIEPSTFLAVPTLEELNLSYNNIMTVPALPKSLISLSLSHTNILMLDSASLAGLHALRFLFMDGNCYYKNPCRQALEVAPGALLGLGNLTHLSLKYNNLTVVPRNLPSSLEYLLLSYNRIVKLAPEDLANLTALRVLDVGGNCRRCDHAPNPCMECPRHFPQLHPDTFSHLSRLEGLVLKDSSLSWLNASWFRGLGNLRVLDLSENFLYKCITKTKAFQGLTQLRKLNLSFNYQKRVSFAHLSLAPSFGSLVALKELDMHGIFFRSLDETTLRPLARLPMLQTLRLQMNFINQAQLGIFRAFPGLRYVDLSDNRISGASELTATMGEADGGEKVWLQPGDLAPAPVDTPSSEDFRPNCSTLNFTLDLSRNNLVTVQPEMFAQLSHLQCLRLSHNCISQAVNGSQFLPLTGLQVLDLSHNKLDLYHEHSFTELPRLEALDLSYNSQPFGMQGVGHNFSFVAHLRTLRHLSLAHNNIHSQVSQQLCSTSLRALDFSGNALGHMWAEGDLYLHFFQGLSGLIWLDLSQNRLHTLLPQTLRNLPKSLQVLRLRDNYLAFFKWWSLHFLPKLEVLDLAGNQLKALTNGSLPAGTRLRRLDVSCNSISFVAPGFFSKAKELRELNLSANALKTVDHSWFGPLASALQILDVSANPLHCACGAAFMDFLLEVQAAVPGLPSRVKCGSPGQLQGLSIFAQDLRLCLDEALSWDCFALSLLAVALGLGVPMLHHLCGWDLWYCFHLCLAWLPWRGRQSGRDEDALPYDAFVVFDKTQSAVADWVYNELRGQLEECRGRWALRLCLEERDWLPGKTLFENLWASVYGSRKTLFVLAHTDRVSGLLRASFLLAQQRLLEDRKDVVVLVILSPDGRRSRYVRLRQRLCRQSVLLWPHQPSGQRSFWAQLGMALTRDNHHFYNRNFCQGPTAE
Test: HEK-TLR9 NF-κB-luciferase reporter, ODN2006 stimulation
Type: cell-based
Details: averaged NF-κB-Luciferase relative to ODN2006 condition; for TLR9 100 nM: MOE-modified ASO at 100 nM; for TLR9 500 nM: MOE-modified ASO at 500 nM

| Sequence | TLR9 100 nM | TLR9 500 nM |
| --- | --- | --- |
| CTCTTGAAGCATCGTATCAC (antisense; 2'-MOE modified, pattern not given here) [CTNN2B-3648 MOE] | 0.721 | 0.472 |
| CAATGTGATGGCCTCCCATC (antisense; 2'-MOE modified, pattern not given here) [HPRT-335 MOE] | 0.614 | 0.412 |
| GTGTCCTTGCACGTGGCTTC (antisense; 2'-MOE modified, pattern not given here) [EGFR-1015 MOE] | 0.784 | 0.641 |
| GTGTCTTCATCGGCCCTGCC (antisense; 2'-MOE modified, pattern not given here) [CAMSAP1-2113 MOE] | 0.611 | 0.201 |
| GTCCACATCCTGTGGCTCGT (antisense; 2'-MOE modified, pattern not given here) [CAMSAP1-2906 MOE] | 0.559 | 0.254 |
| ACAGTGTTGAGATACTCGGG (antisense; 2'-MOE modified, pattern not given here) [EGFR-3652 MOE] | 0.436 | 0.194 |
| CGTGTCTGGAAGCTTCCTTT (antisense; 2'-MOE modified, pattern not given here) [CTNN2B-808 MOE] | 0.568 | 0.259 |
| ATGTGATGGCCTCCCATCTC (antisense; 2'-MOE modified, pattern not given here) [HPRT-333 MOE] | 0.900 | 0.918 |
| ATGTCCCCTGTTGACTGGTC (antisense; 2'-MOE modified, pattern not given here) [HPRT-489 MOE] | 0.968 | 0.953 |
| TTCTGCAGCTTCCTTGTCCT (antisense; 2'-MOE modified, pattern not given here) [CTNN2B-2136 MOE] | 0.746 | 0.467 |
| ATCCAACACTTCGTGGGGTC (antisense; 2'-MOE modified, pattern not given here) [HPRT-668 MOE] | 0.287 | 0.618 |
| GGTCCATACCCAAGGCATCC (antisense; 2'-MOE modified, pattern not given here) [CTNN2B-2446 MOE] | 0.687 | 0.453 |
| GGGAAAGGTTATGCAAGGTC (antisense; 2'-MOE modified, pattern not given here) [CTNN2B-916 MOE] | 0.521 | 0.505 |
| GAACCACGTCTGCTCTAACA (antisense; 2'-MOE modified, pattern not given here) [CAMSAP1-1635 MOE] | 0.588 | 0.466 |
| GGAGCTTCGAGGCCCCAGGC (MOE modified, pattern not given here) [MB21D1-616 MOE] | 0.588 | 0.168 |
| TAGTCAAGGGCATATCCTAC (antisense; 2'-MOE modified, pattern not given here) [HPRT-732 MOE] | 0.787 | 0.462 |
| GCGTGTCTGGAAGCTTCCTT (antisense; 2'-MOE modified, pattern not given here) [CTNN2B-809 MOE] | 0.263 | 0.229 |
| GGTGGTCCACAACCCCTTTC (antisense; 2'-MOE modified, pattern not given here) [MB21D1-697 MOE] | 0.456 | 0.071 |
| CAACACTTCGTGGGGTCCTT (antisense; 2'-MOE modified, pattern not given here) [HPRT-665 MOE] | 0.858 | 0.619 |

| Sequence | TLR9 100 nM | TLR9 500 nM |
| --- | --- | --- |
| TCGCACTTCAGTCTGAGCAG (antisense; 2'-MOE modified, pattern not given here) [MB21D1-719 MOE] | 0.521 | 0.266 |
| TTGCACACTTCGTACCCAAA (antisense; 2'-MOE modified, pattern not given here) [CAMSAP1-4915 MOE] | 0.894 | 0.524 |
| ATGTCCCGCCACTGGATGCT (antisense; 2'-MOE modified, pattern not given here) [EGFR-727 MOE] | 0.801 | 0.423 |
| AGATCTGGCAGCCCATCAAC (antisense; 2'-MOE modified, pattern not given here) [CTNN2B-2516 MOE] | 0.607 | 0.268 |
| CAAGGCCCTTCGCACTTCTT (antisense; 2'-MOE modified, pattern not given here) [EGFR-1225 MOE] | 0.624 | 0.712 |
| GGAGGTCTTGGCTTCGTGGA (antisense; 2'-MOE modified, pattern not given here) [MB21D1-524 MOE] | 0.466 | 0.342 |
| CTTACTTTCCGAGGTGTCCA (antisense; 2'-MOE modified, pattern not given here) [CAMSAP1-1739 MOE] | 0.647 | 0.531 |
| GGCATCCACCACGTCGTCCA (antisense; 2'-MOE modified, pattern not given here) [EGFR-3266 MOE] | 0.742 | 0.481 |
| AATCCGCCCAAAGGGAACTG (antisense; 2'-MOE modified, pattern not given here) [HPRT-1027 MOE] | 0.591 | 0.591 |
| GGTGGTGGCCACCCATCTCA (antisense; 2'-MOE modified, pattern not given here) [CTNN2B-2479 MOE] | 0.761 | 0.317 |
| GCTTCAGGCGCTGCCTTGCC (antisense; 2'-MOE modified, pattern not given here) [CAMSAP1-2709 MOE] | 0.833 | 0.824 |
| AGGTCTTGGCTTCGTGGAGC (antisense; 2'-MOE modified, pattern not given here) [MB21D1-522 MOE] | 0.568 | 0.280 |
| ACAACCCCTTTCACCATCCC (antisense; 2'-MOE modified, pattern not given here) [MB21D1-689 MOE] | 0.785 | 0.499 |
| TGTCCTTGCACGTGGCTTCG (antisense; 2'-MOE modified, pattern not given here) [EGFR-1014 MOE] | 0.764 | 0.623 |
| AACACTTCGTGGGGTCCTTT (antisense; 2'-MOE modified, pattern not given here) [HPRT-664 MOE] | 0.426 | 0.402 |
| TCCAACACTTCGTGGGGTCC (antisense; 2'-MOE modified, pattern not given here) [HPRT-667 MOE] | 0.792 | 0.616 |
| GCGACTATACGCGCAATATG (antisense; 2'-MOE modified, pattern not given here) [NC5 2′MOE] | 0.395 | 0.035 |
| TGTGATGGCCTCCCATCTCC (antisense; 2'-MOE modified, pattern not given here) [HPRT-332 MOE] | 0.674 | 0.782 |

Source: US20240384268A1, “Oligonucleotides” (Hudson Institute of Medical Research, priority 2021, published 2024)
